Assay results taken from the kinase profiling compilation of Christmann-Franck et al. (2016).
Values joined by “and” are separate entries in the source; they are usually repeats but may differ in a detail not shown here. Identical values can stand only once.

What was measured:
Assay in all cases: Caliper, Mobility shift assay off-chip
MARK3 (human) = MARK3 (human) (UniProt P27448)
PRKD2 (human) = PRKD2 (human) (UniProt Q9BZL6)
MAPK3 (human) = MAPK3 (human) (UniProt P27361)
[1] = tested on: FLT3 (human), P36888 [D835Y]
[2] = tested on: ABL1 (human), P00519 [H396P]
CSNK1D (human) = CSNK1D (human) (UniProt P48730)
PRKCE (human) = PRKCE (human) (UniProt Q02156)
CAMK2G (human) = CAMK2G (human) (UniProt Q13555); conditions: compound 1.0 µM
AKT1 (human) = AKT1 (human) (UniProt P31749)
MAPKAPK3 (human) = MAPKAPK3 (human) (UniProt Q16644)
MAPK14 (human) = MAPK14 (human) (UniProt Q16539)
MAPKAPK2 (human) = MAPKAPK2 (human) (UniProt P49137)
RAF1 (human) = RAF1 (human) (UniProt P04049)
TSSK2 (human) = TSSK2 (human) (UniProt Q96PF2)
CSNK1A1 (human) = CSNK1A1 (human) (UniProt P48729)
GSK3B (human) = GSK3B (human) (UniProt P49841)
BMX (human) = BMX (human) (UniProt P51813)
AKT3 (human) = AKT3 (human) (UniProt Q9Y243)
Sequence of AKT3 (human) (Q9Y243 whole entry, looked up): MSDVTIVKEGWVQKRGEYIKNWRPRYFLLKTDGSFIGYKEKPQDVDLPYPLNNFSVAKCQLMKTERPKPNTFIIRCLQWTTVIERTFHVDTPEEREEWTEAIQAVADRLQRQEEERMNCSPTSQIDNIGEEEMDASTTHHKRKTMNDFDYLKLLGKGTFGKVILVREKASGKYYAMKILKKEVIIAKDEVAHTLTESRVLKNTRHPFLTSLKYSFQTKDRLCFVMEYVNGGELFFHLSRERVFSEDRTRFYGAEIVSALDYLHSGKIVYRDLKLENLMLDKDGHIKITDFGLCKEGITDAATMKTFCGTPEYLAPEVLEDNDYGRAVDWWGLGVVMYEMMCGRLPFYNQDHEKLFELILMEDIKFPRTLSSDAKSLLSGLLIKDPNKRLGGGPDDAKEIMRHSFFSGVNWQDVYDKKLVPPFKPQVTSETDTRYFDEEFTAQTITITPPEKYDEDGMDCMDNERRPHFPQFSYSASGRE

SYK (human) = SYK (human) (UniProt P43405)
IKBKB (human) = IKBKB (human) (UniProt O14920)
MAPK11 (human) = MAPK11 (human) (UniProt Q15759)
LYN (human) = LYN (human) (UniProt P07948)
PRKD3 (human) = PRKD3 (human) (UniProt O94806)
Sequence of PRKD3 (human) (O94806 whole entry, looked up): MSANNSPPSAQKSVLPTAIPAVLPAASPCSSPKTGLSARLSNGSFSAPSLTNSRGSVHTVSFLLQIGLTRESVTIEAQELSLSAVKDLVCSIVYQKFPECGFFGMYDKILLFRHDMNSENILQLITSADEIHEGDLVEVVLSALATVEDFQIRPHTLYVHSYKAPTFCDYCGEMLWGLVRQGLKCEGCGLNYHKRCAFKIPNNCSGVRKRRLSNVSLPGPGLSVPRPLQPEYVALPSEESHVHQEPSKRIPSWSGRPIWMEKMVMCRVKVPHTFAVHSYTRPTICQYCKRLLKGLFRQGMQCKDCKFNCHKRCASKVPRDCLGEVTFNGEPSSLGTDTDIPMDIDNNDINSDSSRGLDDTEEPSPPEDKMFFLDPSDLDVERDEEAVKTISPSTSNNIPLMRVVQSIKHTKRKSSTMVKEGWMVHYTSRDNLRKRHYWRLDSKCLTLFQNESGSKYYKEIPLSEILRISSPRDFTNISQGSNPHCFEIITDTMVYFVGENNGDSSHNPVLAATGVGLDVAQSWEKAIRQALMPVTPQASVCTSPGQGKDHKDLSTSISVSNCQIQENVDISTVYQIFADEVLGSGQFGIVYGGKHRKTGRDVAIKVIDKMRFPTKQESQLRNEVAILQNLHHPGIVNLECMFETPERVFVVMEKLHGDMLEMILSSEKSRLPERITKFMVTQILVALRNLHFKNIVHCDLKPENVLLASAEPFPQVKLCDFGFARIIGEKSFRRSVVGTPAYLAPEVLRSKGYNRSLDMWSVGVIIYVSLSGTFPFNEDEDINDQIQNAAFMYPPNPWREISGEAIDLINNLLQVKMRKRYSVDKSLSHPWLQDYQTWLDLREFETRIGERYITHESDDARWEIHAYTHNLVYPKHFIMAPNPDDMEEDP

MARK2 (human) = MARK2 (human) (UniProt Q7KZI7)
CAMK2D (human) = CAMK2D (human) (UniProt Q13557); conditions: compound 1.0 µM
EGFR (human) = EGFR (human) (UniProt P00533)
Sequence of EGFR (human) (P00533 whole entry, looked up): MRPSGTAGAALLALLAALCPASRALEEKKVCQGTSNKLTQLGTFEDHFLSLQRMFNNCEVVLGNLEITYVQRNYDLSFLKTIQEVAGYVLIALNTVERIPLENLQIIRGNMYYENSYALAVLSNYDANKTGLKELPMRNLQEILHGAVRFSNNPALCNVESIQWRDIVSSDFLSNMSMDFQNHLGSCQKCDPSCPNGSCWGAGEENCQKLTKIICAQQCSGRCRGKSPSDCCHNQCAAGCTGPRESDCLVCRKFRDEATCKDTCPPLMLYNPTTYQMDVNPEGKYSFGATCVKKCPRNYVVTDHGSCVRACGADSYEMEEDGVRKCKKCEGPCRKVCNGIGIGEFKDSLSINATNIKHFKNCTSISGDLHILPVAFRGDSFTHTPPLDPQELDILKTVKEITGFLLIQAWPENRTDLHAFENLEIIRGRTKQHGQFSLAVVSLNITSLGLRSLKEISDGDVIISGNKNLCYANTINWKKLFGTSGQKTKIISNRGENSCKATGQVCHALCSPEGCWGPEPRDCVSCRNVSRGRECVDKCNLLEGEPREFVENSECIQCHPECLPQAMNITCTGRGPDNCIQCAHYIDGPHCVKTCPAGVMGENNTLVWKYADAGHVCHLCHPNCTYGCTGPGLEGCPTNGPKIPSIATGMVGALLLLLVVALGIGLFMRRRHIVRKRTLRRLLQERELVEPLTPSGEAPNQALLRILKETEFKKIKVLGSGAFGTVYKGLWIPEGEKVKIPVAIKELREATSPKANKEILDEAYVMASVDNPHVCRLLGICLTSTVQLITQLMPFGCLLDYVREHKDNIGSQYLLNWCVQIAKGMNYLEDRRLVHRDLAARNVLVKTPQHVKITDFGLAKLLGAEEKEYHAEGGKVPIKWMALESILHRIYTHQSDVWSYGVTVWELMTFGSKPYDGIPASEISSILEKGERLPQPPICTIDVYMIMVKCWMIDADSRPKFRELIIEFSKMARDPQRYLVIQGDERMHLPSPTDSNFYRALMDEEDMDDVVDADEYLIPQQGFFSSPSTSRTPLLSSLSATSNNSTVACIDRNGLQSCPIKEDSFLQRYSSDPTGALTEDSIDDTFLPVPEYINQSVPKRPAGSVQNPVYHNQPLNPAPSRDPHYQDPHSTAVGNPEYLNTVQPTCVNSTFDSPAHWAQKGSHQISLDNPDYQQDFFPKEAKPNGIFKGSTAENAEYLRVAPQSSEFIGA

PRKG1 (human) = PRKG1 (human) (UniProt Q13976)
Sequence of PRKG1 (human) (Q13976 whole entry, looked up): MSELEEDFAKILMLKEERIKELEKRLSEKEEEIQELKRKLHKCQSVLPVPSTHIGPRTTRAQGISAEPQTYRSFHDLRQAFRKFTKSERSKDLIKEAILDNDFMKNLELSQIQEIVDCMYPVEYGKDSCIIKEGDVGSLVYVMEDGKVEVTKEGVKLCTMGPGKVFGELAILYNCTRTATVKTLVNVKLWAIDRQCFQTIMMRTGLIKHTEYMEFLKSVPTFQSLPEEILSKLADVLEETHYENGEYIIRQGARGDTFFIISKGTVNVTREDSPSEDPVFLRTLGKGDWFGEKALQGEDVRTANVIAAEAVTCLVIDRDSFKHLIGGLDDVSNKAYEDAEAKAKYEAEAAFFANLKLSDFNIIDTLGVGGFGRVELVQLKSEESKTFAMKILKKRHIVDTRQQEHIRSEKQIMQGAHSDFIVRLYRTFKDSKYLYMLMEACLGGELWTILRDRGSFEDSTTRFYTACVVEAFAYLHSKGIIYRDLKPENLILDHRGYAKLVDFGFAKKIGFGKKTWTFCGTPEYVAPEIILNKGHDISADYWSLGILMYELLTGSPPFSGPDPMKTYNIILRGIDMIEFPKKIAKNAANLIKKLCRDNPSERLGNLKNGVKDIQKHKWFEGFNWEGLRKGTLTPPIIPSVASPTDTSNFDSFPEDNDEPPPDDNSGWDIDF

FGFR3 (human) = FGFR3 (human) (UniProt P22607)
BRSK1 (human) = BRSK1 (human) (UniProt Q8TDC3)
MAPKAPK5 (human) = MAPKAPK5 (human) (UniProt Q8IW41)
Sequence of MAPKAPK5 (human) (Q8IW41 whole entry, looked up): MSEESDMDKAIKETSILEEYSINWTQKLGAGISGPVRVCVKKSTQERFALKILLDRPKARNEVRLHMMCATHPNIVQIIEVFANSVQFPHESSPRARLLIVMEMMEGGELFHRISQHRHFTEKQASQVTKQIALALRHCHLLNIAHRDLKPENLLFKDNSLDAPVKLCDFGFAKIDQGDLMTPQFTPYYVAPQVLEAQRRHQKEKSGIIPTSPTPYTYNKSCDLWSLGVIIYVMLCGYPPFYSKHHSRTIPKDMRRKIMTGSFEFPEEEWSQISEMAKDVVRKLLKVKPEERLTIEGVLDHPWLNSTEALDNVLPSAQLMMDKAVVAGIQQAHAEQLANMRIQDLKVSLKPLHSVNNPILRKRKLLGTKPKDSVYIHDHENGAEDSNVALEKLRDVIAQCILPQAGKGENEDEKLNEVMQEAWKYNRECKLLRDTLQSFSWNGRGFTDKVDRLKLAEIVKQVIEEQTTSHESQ

FLT3 (human) = FLT3 (human) (UniProt P36888)
IGF1R (human) = IGF1R (human) (UniProt P08069)
BRSK2 (human) = BRSK2 (human) (UniProt Q8IWQ3)
DCLK2 (human) = DCLK2 (human) (UniProt Q8N568)

Sequence of MAPK3 (human) (P27361 whole entry, looked up): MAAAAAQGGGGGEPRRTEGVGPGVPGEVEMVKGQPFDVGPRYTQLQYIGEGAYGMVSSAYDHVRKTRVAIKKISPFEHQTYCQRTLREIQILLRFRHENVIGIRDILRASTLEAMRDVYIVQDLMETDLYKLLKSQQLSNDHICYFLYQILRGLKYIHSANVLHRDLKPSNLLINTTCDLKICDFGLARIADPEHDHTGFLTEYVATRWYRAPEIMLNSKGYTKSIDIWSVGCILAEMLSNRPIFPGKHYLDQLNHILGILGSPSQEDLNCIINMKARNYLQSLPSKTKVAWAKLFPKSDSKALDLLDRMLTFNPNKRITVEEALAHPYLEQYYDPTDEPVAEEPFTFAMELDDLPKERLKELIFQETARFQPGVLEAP
Sequence of MARK3 (human) (P27448 whole entry, looked up): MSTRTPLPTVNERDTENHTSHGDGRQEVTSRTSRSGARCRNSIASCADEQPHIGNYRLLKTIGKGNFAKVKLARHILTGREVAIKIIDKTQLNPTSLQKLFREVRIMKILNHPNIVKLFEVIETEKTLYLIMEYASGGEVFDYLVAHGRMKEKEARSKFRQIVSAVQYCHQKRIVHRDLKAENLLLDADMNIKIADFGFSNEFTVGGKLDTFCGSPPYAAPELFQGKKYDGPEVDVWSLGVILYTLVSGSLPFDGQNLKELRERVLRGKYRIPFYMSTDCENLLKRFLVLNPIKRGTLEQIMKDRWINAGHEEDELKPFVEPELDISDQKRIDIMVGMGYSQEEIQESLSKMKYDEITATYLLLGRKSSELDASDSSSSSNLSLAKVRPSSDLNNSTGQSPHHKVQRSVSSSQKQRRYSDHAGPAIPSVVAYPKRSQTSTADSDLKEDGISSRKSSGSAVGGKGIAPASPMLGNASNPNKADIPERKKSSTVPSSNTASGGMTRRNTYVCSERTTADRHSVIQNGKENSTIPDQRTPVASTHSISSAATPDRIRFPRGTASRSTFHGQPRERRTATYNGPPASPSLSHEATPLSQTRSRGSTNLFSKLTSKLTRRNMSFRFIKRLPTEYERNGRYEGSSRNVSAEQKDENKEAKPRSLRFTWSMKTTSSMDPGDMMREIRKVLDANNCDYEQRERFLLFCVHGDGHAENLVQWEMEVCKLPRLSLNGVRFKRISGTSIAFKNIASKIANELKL

Q: CN(c1ccc2ccc3ncc(-c4cnn(C)c4)cc3c(=O)c2c1)S(=O)(=O)NCc1ccccn1 was tested. Which inhibition (MARK3 (human); compound 0.1 µM) did it give?
A: The inhibition was -1.8%.

Q: What about the inhibition (MARK3 (human); compound 1.0 µM) of the same molecule?
A: The inhibition was 5.3%.

Q: What about the inhibition (PRKD2 (human); compound 0.1 µM) of the same molecule?
A: The inhibition was 5.7%.

Q: And the inhibition (PRKD2 (human); compound 1.0 µM)?
A: Its inhibition is -9.6%.

Q: And the inhibition (MAPK3 (human); compound 0.1 µM)?
A: Its inhibition is 0.9%.

Q: What about the inhibition (MAPK3 (human); compound 1.0 µM) of the same molecule?
A: Its inhibition is -7.3%.

Q: What about the inhibition ([1]; compound 0.1 µM) of the same molecule?
A: Its inhibition is 49.8%.

Q: What about the inhibition ([1]; compound 1.0 µM) of the same molecule?
A: The inhibition was 86.5%.

Q: And the inhibition ([2]; compound 0.1 µM)?
A: The inhibition was -1.8%.

Q: What about the inhibition ([2]; compound 1.0 µM) of the same molecule?
A: The inhibition was 42.1%.

Q: What about the inhibition (CSNK1D (human); compound 0.1 µM) of the same molecule?
A: The inhibition was 3.5%.

Q: And the inhibition (CSNK1D (human); compound 1.0 µM)?
A: The inhibition was 8.9%.

Q: And the inhibition (PRKCE (human); compound 0.1 µM)?
A: Its inhibition is 8.8%.

Q: What about the inhibition (PRKCE (human); compound 1.0 µM) of the same molecule?
A: The inhibition was 3.9%.

Q: And the inhibition (CAMK2G (human))?
A: The inhibition was 0.4%.

Q: And the inhibition (AKT1 (human); compound 0.1 µM)?
A: The inhibition was -4.1%.

Q: What about the inhibition (AKT1 (human); compound 1.0 µM) of the same molecule?
A: Its inhibition is 6.2%.

Q: And the inhibition (MAPKAPK3 (human); compound 0.1 µM)?
A: The inhibition was -0.1%.

Q: What about the inhibition (MAPKAPK3 (human); compound 1.0 µM) of the same molecule?
A: Its inhibition is -2.3%.

Q: What about the inhibition (MAPK14 (human); compound 0.1 µM) of the same molecule?
A: The inhibition was -4.5%.

Q: And the inhibition (MAPK14 (human); compound 1.0 µM)?
A: The inhibition was 1.9%.

Q: And the inhibition (MAPKAPK2 (human); compound 0.1 µM)?
A: The inhibition was -0.4%.

Q: And the inhibition (MAPKAPK2 (human); compound 1.0 µM)?
A: Its inhibition is 2.9%.

Q: What about the inhibition (RAF1 (human); compound 0.1 µM) of the same molecule?
A: The inhibition was -6.5%.

Q: What about the inhibition (RAF1 (human); compound 1.0 µM) of the same molecule?
A: Its inhibition is -0.8%.

Q: And the inhibition (TSSK2 (human); compound 0.1 µM)?
A: Its inhibition is -3.3%.

Q: And the inhibition (TSSK2 (human); compound 1.0 µM)?
A: Its inhibition is -0.8%.

Q: What about the inhibition (CSNK1A1 (human); compound 0.1 µM) of the same molecule?
A: Its inhibition is -7.8%.

Q: And the inhibition (CSNK1A1 (human); compound 1.0 µM)?
A: The inhibition was 7.2%.

Q: And the inhibition (GSK3B (human); compound 0.1 µM)?
A: Its inhibition is -6.8%.

Q: And the inhibition (GSK3B (human); compound 1.0 µM)?
A: The inhibition was 4.8%.

Q: And the inhibition (BMX (human); compound 0.1 µM)?
A: Its inhibition is 1.8%.

Q: What about the inhibition (BMX (human); compound 1.0 µM) of the same molecule?
A: The inhibition was 8%.

Q: And the inhibition (AKT3 (human); compound 0.1 µM)?
A: Its inhibition is 6.2%.

Q: And the inhibition (AKT3 (human); compound 1.0 µM)?
A: Its inhibition is 5.2%.

Q: What about the inhibition (SYK (human); compound 0.1 µM) of the same molecule?
A: The inhibition was 8.7%.

Q: And the inhibition (SYK (human); compound 1.0 µM)?
A: Its inhibition is 15.8%.

Q: And the inhibition (IKBKB (human); compound 0.1 µM)?
A: Its inhibition is 10%.

Q: And the inhibition (IKBKB (human); compound 1.0 µM)?
A: Its inhibition is 18.6%.

Q: What about the inhibition (MAPK11 (human); compound 0.1 µM) of the same molecule?
A: Its inhibition is -0.1%.

Q: What about the inhibition (MAPK11 (human); compound 1.0 µM) of the same molecule?
A: Its inhibition is -5.4%.

Q: What about the inhibition (LYN (human); compound 0.1 µM) of the same molecule?
A: The inhibition was 2.5%.

Q: What about the inhibition (LYN (human); compound 1.0 µM) of the same molecule?
A: Its inhibition is 25.1%.

Q: And the inhibition (PRKD3 (human); compound 0.1 µM)?
A: Its inhibition is 8%.

Q: What about the inhibition (PRKD3 (human); compound 1.0 µM) of the same molecule?
A: The inhibition was 9.4%.

Q: And the inhibition (MARK2 (human); compound 0.1 µM)?
A: Its inhibition is -3.7%.

Q: What about the inhibition (MARK2 (human); compound 1.0 µM) of the same molecule?
A: Its inhibition is 12.6%.

Q: And the inhibition (CAMK2D (human))?
A: The inhibition was -1.3%.

Q: And the inhibition (EGFR (human); compound 0.1 µM)?
A: Its inhibition is -4.8%.

Q: And the inhibition (EGFR (human); compound 1.0 µM)?
A: Its inhibition is 7%.

Q: And the inhibition (PRKG1 (human); compound 0.1 µM)?
A: The inhibition was 8.1% and 4.1%.

Q: And the inhibition (PRKG1 (human); compound 1.0 µM)?
A: Its inhibition is 11.8% and 4.9%.

Q: What about the inhibition (FGFR3 (human); compound 0.1 µM) of the same molecule?
A: Its inhibition is 26.3%.

Q: What about the inhibition (FGFR3 (human); compound 1.0 µM) of the same molecule?
A: The inhibition was 81%.

Q: And the inhibition (BRSK1 (human); compound 0.1 µM)?
A: Its inhibition is 3.3%.

Q: What about the inhibition (BRSK1 (human); compound 1.0 µM) of the same molecule?
A: Its inhibition is 0.5%.

Q: And the inhibition (MAPKAPK5 (human); compound 0.1 µM)?
A: Its inhibition is 10.5%.

Q: What about the inhibition (MAPKAPK5 (human); compound 1.0 µM) of the same molecule?
A: Its inhibition is 3%.

Q: What about the inhibition (FLT3 (human); compound 0.1 µM) of the same molecule?
A: Its inhibition is 13.7%.

Q: And the inhibition (FLT3 (human); compound 1.0 µM)?
A: Its inhibition is 62.9%.

Q: What about the inhibition (IGF1R (human); compound 0.1 µM) of the same molecule?
A: The inhibition was -12.2%.

Q: And the inhibition (IGF1R (human); compound 1.0 µM)?
A: Its inhibition is -0.8%.

Q: What about the inhibition (BRSK2 (human); compound 0.1 µM) of the same molecule?
A: Its inhibition is -0.7%.

Q: And the inhibition (BRSK2 (human); compound 1.0 µM)?
A: The inhibition was 6.6%.

Q: What about the inhibition (DCLK2 (human); compound 0.1 µM) of the same molecule?
A: Its inhibition is 8.6%.

Q: And the inhibition (DCLK2 (human); compound 1.0 µM)?
A: Its inhibition is 4.1%.
